Changes are numbered by the printed parent chain. Each block holds one compound with its values, some of them ahead of it.
Columns and labels:
Oryctolagus cuniculus [1] = organism: Oryctolagus cuniculus; assay: PD' 2 value was evaluated for antagonistic activity in rabbit aorta; assay type: functional
Rattus norvegicus [2] = organism: Rattus norvegicus; assay: Oral effective dose required for inhibition of Ang II pressor response in rats; assay type: functional
Oryctolagus cuniculus [3] = organism: Oryctolagus cuniculus; assay: Compound was tested for its antagonistic activity against angiotensin II-induced contractions in rabbit aorta; assay type: functional
[4] = target: T1, Angiotensin II receptor (AT-1) type-1 (Rattus norvegicus, UniProt P29089+P25095); assay: Binding affinity was evaluated towards Angiotensin II receptor, type 1 in rat adrenal membrane; assay type: cell membranes
T1 sequence (P29089 whole entry): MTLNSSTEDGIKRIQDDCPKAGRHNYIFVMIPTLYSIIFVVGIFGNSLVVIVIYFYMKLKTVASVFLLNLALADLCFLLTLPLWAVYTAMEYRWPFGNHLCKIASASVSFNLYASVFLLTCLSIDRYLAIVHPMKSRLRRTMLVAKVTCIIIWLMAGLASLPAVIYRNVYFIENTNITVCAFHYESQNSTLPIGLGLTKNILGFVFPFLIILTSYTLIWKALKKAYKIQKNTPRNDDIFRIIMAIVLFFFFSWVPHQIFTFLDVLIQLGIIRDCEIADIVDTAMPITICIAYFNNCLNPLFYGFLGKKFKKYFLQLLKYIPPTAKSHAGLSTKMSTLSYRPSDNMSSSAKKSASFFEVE
T1 sequence (P25095 whole entry): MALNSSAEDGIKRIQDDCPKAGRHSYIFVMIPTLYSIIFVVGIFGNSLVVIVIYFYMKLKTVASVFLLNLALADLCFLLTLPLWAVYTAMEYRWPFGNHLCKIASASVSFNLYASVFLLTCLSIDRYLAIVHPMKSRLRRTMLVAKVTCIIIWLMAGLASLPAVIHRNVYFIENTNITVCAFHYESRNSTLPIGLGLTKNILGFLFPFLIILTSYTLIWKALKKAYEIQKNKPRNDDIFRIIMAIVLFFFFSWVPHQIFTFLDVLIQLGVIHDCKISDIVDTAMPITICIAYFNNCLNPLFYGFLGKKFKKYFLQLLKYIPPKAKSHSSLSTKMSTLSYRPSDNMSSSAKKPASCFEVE

[5] = target: T2, Type-1 angiotensin II receptor (Oryctolagus cuniculus, UniProt P34976); assay: Inhibitory activity was evaluated against angiotensin II type 1 rabbit aorta; assay type: tissue-based
T2 sequence (P34976 whole entry): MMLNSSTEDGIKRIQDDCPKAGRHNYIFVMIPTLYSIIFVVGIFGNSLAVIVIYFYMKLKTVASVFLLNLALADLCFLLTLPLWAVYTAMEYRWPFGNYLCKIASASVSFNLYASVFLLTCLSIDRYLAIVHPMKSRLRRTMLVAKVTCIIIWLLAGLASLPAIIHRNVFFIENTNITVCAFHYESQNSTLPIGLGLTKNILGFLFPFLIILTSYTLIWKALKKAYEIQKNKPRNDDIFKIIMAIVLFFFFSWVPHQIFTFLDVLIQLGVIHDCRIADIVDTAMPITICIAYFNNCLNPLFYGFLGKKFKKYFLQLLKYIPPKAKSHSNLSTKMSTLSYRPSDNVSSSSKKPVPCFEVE

[6] = target: T2, Type-1 angiotensin II receptor; assay: Binding affinity was evaluated towards Angiotensin II receptor, type 1 in rabbit aorta; assay type: tissue-based
[7] = Oral Bioavailability was evaluated in dog by oral administration; assay type: ADME, organism-based, Canis lupus familiaris; conditions: in vivo
[8] = Oral Bioavailability was evaluated in cynomolgus monkeys by oral administration; assay type: ADME, organism-based, Macaca fascicularis; conditions: cynomolgus monkey, in vivo
[9] = target: T1, Angiotensin II receptor (AT-1) type-1; assay: In vitro antagonistic potency against Angiotensin II receptor, type 1 in rat liver; assay type: functional, tissue-based
[10] = Oral bioavailability in rat; assay type: ADME, organism-based; conditions: in vivo
Rattus norvegicus [11] = assay: Effective dose was evaluated in pithed normotensive rats by intraveneous administration; assay type: functional; conditions: iv
[12] = Inhibitory activity was evaluated against Angiotensin II receptor, type 2
Rattus norvegicus [13] = organism: Rattus norvegicus; assay: pD'2 value was evaluated against in rat portal vein; assay type: functional
Rattus norvegicus [14] = assay: Effective dose was evaluated in pithed normotensive rats by oral administration; assay type: functional
[15] = target: T3, Type-1 angiotensin II receptor (Cavia porcellus, UniProt Q9WV26); assay: In vitro antagonistic potency against Angiotensin II receptor, type 1 in guinea pig adrenal membrane; assay type: functional, cell membranes
T3 sequence (Q9WV26 whole entry): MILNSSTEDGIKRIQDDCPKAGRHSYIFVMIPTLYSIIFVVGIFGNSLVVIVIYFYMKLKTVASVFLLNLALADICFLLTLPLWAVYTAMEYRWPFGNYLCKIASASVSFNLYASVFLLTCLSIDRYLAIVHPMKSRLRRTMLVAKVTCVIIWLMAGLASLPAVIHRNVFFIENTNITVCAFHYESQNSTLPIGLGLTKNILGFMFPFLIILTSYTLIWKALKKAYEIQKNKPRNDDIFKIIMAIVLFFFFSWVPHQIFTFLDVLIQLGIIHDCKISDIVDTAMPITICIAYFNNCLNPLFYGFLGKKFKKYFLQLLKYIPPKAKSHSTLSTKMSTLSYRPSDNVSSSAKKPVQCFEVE

[16] = target: T4, Type-2 angiotensin II receptor (Homo sapiens, UniProt P50052); assay: Inhibition of Angiotensin II receptor, type 2
T4 sequence (P50052 whole entry): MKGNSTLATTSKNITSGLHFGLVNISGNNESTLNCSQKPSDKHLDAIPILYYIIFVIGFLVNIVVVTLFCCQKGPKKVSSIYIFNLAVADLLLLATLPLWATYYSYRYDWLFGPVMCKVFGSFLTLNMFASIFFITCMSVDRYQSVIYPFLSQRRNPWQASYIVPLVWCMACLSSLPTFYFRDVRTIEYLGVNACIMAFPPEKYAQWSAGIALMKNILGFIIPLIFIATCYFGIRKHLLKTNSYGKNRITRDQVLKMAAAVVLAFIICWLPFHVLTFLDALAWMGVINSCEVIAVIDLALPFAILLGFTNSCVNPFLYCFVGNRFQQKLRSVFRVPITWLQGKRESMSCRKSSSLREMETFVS

[17] = target: T5, Type-1 angiotensin II receptor (Homo sapiens, UniProt P30556); assay: Inhibition of Angiotensin II receptor, type 1
T5 sequence (P30556 whole entry): T2 sequence (P34976 whole entry) with M2I, A49V, V254I, V270I, H272R, K311R, S349T, V353A

Rattus norvegicus [18] = assay: Percent inhibition was evaluated against Ang II pressor in rats at dose 3 mg/kg, by oral administration; assay type: functional
Rattus norvegicus [19] = assay: Effective dose required for inhibition of Ang II-induced pressor response in conscious rats; assay type: functional
Rattus norvegicus [20] = assay: Compound at an oral dose of 3 mg/Kg was tested for the inhibition of Ang-II induced pressor responses in conscious rats; assay type: functional
Rattus norvegicus [21] = organism: Rattus norvegicus; assay: Effective dose required for lowering blood pressure in renal hypertensive rats (RHR); assay type: functional
Canis familiaris = assay: Oral effective dose required for inhibition of Ang II pressor response in conscious dog; assay type: functional; conditions: Canis lupus familiaris
Rhesus monkey = assay: Oral effective dose required for inhibition of Ang II pressor response in conscious rhesus monkey; assay type: functional, Cercopithecidae; conditions: Macaca mulatta
Rattus norvegicus [22] = assay: Oral effective dose required for inhibition of Ang II pressor response in conscious rat; assay type: functional

SMILES: CCc1nc2c(n1Cc1ccc(-c3ccccc3-c3nn[nH]n3)cc1)/C(=C/C(=O)O)CCCC2
PD' 2 (Oryctolagus cuniculus [1]): 9.91

SMILES: CCOc1nc2cccc(C(=O)OC(C)OC(=O)OC3CCCCC3)c2n1Cc1ccc(-c2ccccc2-c2nn[nH]n2)cc1 (stereo unspecified) [CANDESARTAN CILEXETIL]
ED50 (Rattus norvegicus [2]): 0.069 mg/kg

SMILES: CCc1nc2c(CC)cn(Cc3ccc(-c4ccccc4-c4nn[nH]n4)cc3)n2n1
IC50 [5]: 1.7 nM

SMILES: CCCN(Cc1ccc(-c2ccccc2-c2nn[nH]n2)cc1)c1ncccc1C(=O)O
bioavailability [7]: > 50% | bioavailability [8]: > 50% | Ki [9]: 0.76 nM | bioavailability [10]: > 50%

SMILES: CCCCc1nc(SC)c(C(=O)O)n1Cc1ccc(-c2ccccc2S(=O)(=O)NC(=O)NCCC)cc1
ED50 (Rattus norvegicus [11]): 0.11 mg/kg | IC50 [12]: 920 nM | pD'2 (Rattus norvegicus [13]): 10.15 | ED50 (Rattus norvegicus [14]): 0.7 mg/kg

SMILES: CCCCCN(Cc1ccc(-c2ccccc2-c2nn[nH]n2)cc1)C(=O)N1CCN(C(=O)N(c2ccccc2)c2ccccc2)[C@H](C(=O)O)C1
IC50 [16]: 180 nM | IC50 [17]: 15 nM | inhibition in vivo at 3 mg/kg (Rattus norvegicus [18]): 80%

SMILES: CCc1nc2c(C)cc(C)nc2n1Cc1ccc2c(c1)C(Cc1nnn[nH]1)c1ccccc1-2 (stereo unspecified)
inhibition in vivo at 3 mg/kg (Rattus norvegicus [20]): 73%

SMILES: CCCCc1nc(Cl)c(CC(=O)OC)n1Cc1ccc(NC(=O)c2ccccc2C(=O)O)cc1
ED30 (Rattus norvegicus [21]): 11 mg/kg

SMILES: CCc1nc2c(C)cc(C)nc2n1Cc1ccc(-c2ccccc2S(=O)(=O)NC(=O)c2ccccc2)cc1
ED50 (Canis familiaris): 0.035 mg/kg | ED50 (Rhesus monkey): 0.1 mg/kg | ED50 (Rattus norvegicus [22]): 0.067 mg/kg

The next lines start with results.

Ki [4]: 24 nM
SMILES: CCCc1nc(C)n2[nH]c(=O)nc2c1Cc1ccc(-c2ccccc2-c2nnn[nH]2)cc1
Kb (Oryctolagus cuniculus [3]): 0.29 nM

Ki [6]: 0.9 nM
SMILES: CCCCc1nc(C)n(Cc2sccc2C(=O)OC)c(=O)c1Cc1ccc(-c2ccccc2-c2nnn[nH]2)cc1
pKb (Oryctolagus cuniculus [3]): 9.5

IC50 [15]: 30 nM
SMILES: CCc1cc(OCc2ccc(-c3ccccc3-c3nnn[nH]3)cc2)c2ccccc2n1

IC50 [15]: 3.8 nM
SMILES: CCc1cc2c(c(CC)n1)CCC(=O)N2Cc1ccc(-c2ccccc2-c2nnn[nH]2)cc1
ED50 (Rattus norvegicus [19]): 0.19 mg/kg

Reference: ChEMBL document CHEMBL1129469, “Nonpeptide angiotensin II receptor antagonists: the next generation in antihypertensive therapy” (J Med Chem, 1996)
